Legend:
Assay type in all cases: cell-based, hepatitis B virus
[1] = system: HBV; experiment: Intracellular HBV replicative intermediates in HBV baculovirus infected HepG2 cells (Southern blot, densitometry); settings: 50 pfu/cell
Experimental: On the indicated days (3, 6, and 9 days of drug treatment) HBV replication in HepG2 cultures was assessed by examining extracellular HBV DNA and intracellular replicative intermediates.
(§1) (T). […] Relaxed circular (RC) and double-stranded (DS) forms of HBV DNA are indicated. […] (T). […] Replicative intermediates were analyzed by Southern blotting. Double-stranded (DS) and single-stranded (SS) forms of HBV genomic DNA are indicated.
(§2) HepG2 cells were seeded at approximately 20% to 40% confluency and then were grown for 16 to 24 hours before infection. On the day of infection, duplicate plates of cells were trypsinized, and viable cell number was determined with a hemocytometer using Trypan blue exclusion. Average cell counts were calculated and used to determine the volume of high-titer viral stock necessary to infect cells at the indicated moi. Baculovirus was diluted into MEM-FBS to achieve the appropriate moi using volumes of 1.0 and 0.25 mL to infect 100-mm and 35-mm dishes, respectively. Baculovirus was adsorbed to HepG2 cells for one hour at 37° C. with gentle rocking every 15 minutes to ensure that the inoculum was evenly distributed. The inoculum was then aspirated and HepG2 cells were washed two times with phosphate-buffered saline and refed MEM-FBS.
HBV core particles were isolated from the cytoplasmic fraction of HepG2 cells lysed in 0.5% Np40. Cytoplasmic extracts were adjusted to 10 mmol/L MgCl2 and unprotected DNA was removed by an incubation with 500 μg/mL DNasel for 1 hour at 37° C. Samples were then adjusted to 50 mmol/L ethylenediaminetetraacetic acid, 50 mmol/L Tris, 0.5% sodium dodecyl sulfate, and digested with 500 μg/mL. Proteinase K for 1.5 hours at 37° C. Following sequential phenol and chloroform extractions, nucleic acids were recovered by ethanol precipitation. Nucleic acids were resuspended in 50 μL TE (10 mmol/L Tris, 1 mmol/L ethylenediaminetetraacetic acid), normalized by OD260, and digested with 100 μg/mL RNase (Boehringer Mannheim, Indianapolis, Ind.) for one hour at 37° C. before analysis by electrophoresis and Southern blotting. A Molecular Dynamics (Sunnyvale, Calif.) 100A laser densitometer equipped with Quantity One software (Protein Databases Inc., Huntington Station, N.Y.) was used to analyze suitable exposures of Southern blots.
(§3) 3TC was a gift of BioChem Therapeutic Inc. (Laval, Quebec, Canada). […] Medium containing 3TC was prepared daily as needed using fresh aliquots of 3TC.

[2] = system: HBV; experiment: Extracellular HBV DNA secreted by HBV baculovirus infected HepG2 cells (Southern blot, densitometry); settings: 0.2 μM 3TC, 10 day treatment
[3] = system: HBV; experiment: as above
Experimental: as §1
One limitation of using stable cell lines, such as HepG2 2.2.15 cells, for evaluating the efficacy of an antiviral on HBV replication is that the magnitude of virus replication is at a static level predetermined by the number of integrated HBV genome copies. […] Cultures were fed fresh 3TC supplemented medium daily. After 3 days of treatment (4 days p.i.). DNA was extracted from the medium of treated and untreated control cultures and analyzed by Southern Blotting. Autoradiograms shown indicate different elngths of time of exposure of the blot to film: 1 hour (A), 2 hours (B), 4 hours (C), and 8 hours (D). Relaxed circular (RC) and double-stranded (DS) forms of HBV DNA are indicated. The largest reduction of extracellular HBV DNA (>99% reduction after six days of treatment) occurred in cells infected with 25 pfu of baculovirus, the lowest multiplicity tested. […] However, it is also important to note that even a 96% reduction in HBV replication still allowed high levels of HBV virions to be secreted from 3TC-treated cells which were replicating very high levels of HBV (i.e. cells infected with HBV baculovirus at a high moi).
as §2
Conditioned medium was collected from HepG2 cells and subjected to centrifugation at 6,000 g for 5 minutes to I5- remove cellular debris. HBV particles were precipitated with 10% PEG 8000 and were concentrated by centrifugation at 12,000×g. Viral pellets were resuspended in 1 mL of MEM-FBS and divided into two aliquots. One set of aliquots was treated with 750 μg/mL Pronase for one hour and then with 500 mg/mL DNase 1 for one hour. Both sets of aliquots were then digested with Proteinase K, and extracted with phenol and chloroform. DNA was precipitated with 0.1 volume of 3 mol/L sodium acetate and 1 volume of isopropanol. Ten micrograms of transfer RNA was added as a carrier during precipitation. Pellets were resuspended in 25 μL of TE and digested with 0.5 mg/mL RNase for 1 hour. DNA was then analyzed by electrophoresis and Southern blotting.
as §3

Nc1ccn([C@@H]2CS[C@H](CO)O2)c(=O)n1 [3TC, (−)-2′-dideoxy-3′-thiacytidine]
intracellular HBV replicative intermediates, % Untreated Control ([1]; 0.02 μM 3TC, P (from 16 h prior to infection), day 4 p.i. (3 days treatment)): 82.5 % Untreated Control | intracellular HBV replicative intermediates, % Untreated Control ([1]; 0.02 μM 3TC, P (from 16 h prior to infection), day 7 p.i. (6 days treatment)): 100 % Untreated Control | intracellular HBV replicative intermediates, % Untreated Control ([1]; 0.02 μM 3TC, P (from 16 h prior to infection), day 10 p.i. (9 days treatment)): 68.2 % Untreated Control | intracellular HBV replicative intermediates, % Untreated Control ([1]; 0.02 μM 3TC, T (from 24 h p.i.), day 4 p.i. (3 days treatment)): 57.4 % Untreated Control | intracellular HBV replicative intermediates, % Untreated Control ([1]; 0.02 μM 3TC, T (from 24 h p.i.), day 7 p.i. (6 days treatment)): 100 % Untreated Control | intracellular HBV replicative intermediates, % Untreated Control ([1]; 0.02 μM 3TC, T (from 24 h p.i.), day 10 p.i. (9 days treatment)): 59.6 % Untreated Control | intracellular HBV replicative intermediates, % Untreated Control ([1]; 0.2 μM 3TC, P (from 16 h prior to infection), day 4 p.i. (3 days treatment)): 41.7 % Untreated Control | intracellular HBV replicative intermediates, % Untreated Control ([1]; 0.2 μM 3TC, P (from 16 h prior to infection), day 7 p.i. (6 days treatment)): 20.0 % Untreated Control | intracellular HBV replicative intermediates, % Untreated Control ([1]; 0.2 μM 3TC, P (from 16 h prior to infection), day 10 p.i. (9 days treatment)): 6.5 % Untreated Control | intracellular HBV replicative intermediates, % Untreated Control ([1]; 0.2 μM 3TC, T (from 24 h p.i.), day 4 p.i. (3 days treatment)): 35.0 % Untreated Control | intracellular HBV replicative intermediates, % Untreated Control ([1]; 0.2 μM 3TC, T (from 24 h p.i.), day 7 p.i. (6 days treatment)): 16.7 % Untreated Control | intracellular HBV replicative intermediates, % Untreated Control ([1]; 0.2 μM 3TC, T (from 24 h p.i.), day 10 p.i. (9 days treatment)): 6.7 % Untreated Control | intracellular HBV replicative intermediates, % Untreated Control ([1]; 2.0 μM 3TC, P (from 16 h prior to infection), day 4 p.i. (3 days treatment)): 8.2 % Untreated Control | intracellular HBV replicative intermediates, % Untreated Control ([1]; 2.0 μM 3TC, P (from 16 h prior to infection), day 7 p.i. (6 days treatment)): 7.1 % Untreated Control | intracellular HBV replicative intermediates, % Untreated Control ([1]; 2.0 μM 3TC, P (from 16 h prior to infection), day 10 p.i. (9 days treatment)): 1.3 % Untreated Control | intracellular HBV replicative intermediates, % Untreated Control ([1]; 2.0 μM 3TC, T (from 24 h p.i.), day 4 p.i. (3 days treatment)): 12.1 % Untreated Control | intracellular HBV replicative intermediates, % Untreated Control ([1]; 2.0 μM 3TC, T (from 24 h p.i.), day 7 p.i. (6 days treatment)): 8.5 % Untreated Control | intracellular HBV replicative intermediates, % Untreated Control ([1]; 2.0 μM 3TC, T (from 24 h p.i.), day 10 p.i. (9 days treatment)): 2.1 % Untreated Control | reduction in extracellular DNA [2]: ~98% | extracellular HBV DNA, % Untreated Control ([3]; 0.02 μM 3TC, P (from 16 h prior to infection), day 4 p.i. (3 days treatment), 50 pfu/cell): 69.8 % Untreated Control | extracellular HBV DNA, % Untreated Control ([3]; 0.02 μM 3TC, P (from 16 h prior to infection), day 7 p.i. (6 days treatment), 50 pfu/cell): 60.6 % Untreated Control | extracellular HBV DNA, % Untreated Control ([3]; 0.02 μM 3TC, P (from 16 h prior to infection), day 10 p.i. (9 days treatment), 50 pfu/cell): 38.1 % Untreated Control | extracellular HBV DNA, % Untreated Control ([3]; 0.02 μM 3TC, T (from 24 h p.i.), day 4 p.i. (3 days treatment), 50 pfu/cell): 68.1 % Untreated Control | extracellular HBV DNA, % Untreated Control ([3]; 0.02 μM 3TC, T (from 24 h p.i.), day 7 p.i. (6 days treatment), 50 pfu/cell): 39.6 % Untreated Control | extracellular HBV DNA, % Untreated Control ([3]; 0.02 μM 3TC, T (from 24 h p.i.), day 10 p.i. (9 days treatment), 50 pfu/cell): 33.0 % Untreated Control | reduction of extracellular HBV DNA ([3]; 0.02 μM 3TC, nine day treatment, moi 50 pfu/cell): 67% | reduction of HBV DNA in the medium ([3]; 0.02 μM 3TC, three days of treatment, moi 50 pfu/cell): about 30% | extracellular HBV DNA, % Untreated Control ([3]; 0.2 μM 3TC from 24 h p.i., moi 25, day 4 p.i. (3 days treatment)): 4.8 % Untreated Control | extracellular HBV DNA, % Untreated Control ([3]; 0.2 μM 3TC from 24 h p.i., moi 25, day 7 p.i. (6 days treatment)): 0.5 % Untreated Control | extracellular HBV DNA, % Untreated Control ([3]; 0.2 μM 3TC from 24 h p.i., moi 50, day 4 p.i. (3 days treatment)): 13.9 % Untreated Control | extracellular HBV DNA, % Untreated Control ([3]; 0.2 μM 3TC from 24 h p.i., moi 50, day 7 p.i. (6 days treatment)): 3.5 % Untreated Control | extracellular HBV DNA, % Untreated Control ([3]; 0.2 μM 3TC from 24 h p.i., moi 100, day 4 p.i. (3 days treatment)): 27.2 % Untreated Control | extracellular HBV DNA, % Untreated Control ([3]; 0.2 μM 3TC from 24 h p.i., moi 100, day 7 p.i. (6 days treatment)): 3.4 % Untreated Control | extracellular HBV DNA, % Untreated Control ([3]; 0.2 μM 3TC from 24 h p.i., moi 200, day 4 p.i. (3 days treatment)): 20.7 % Untreated Control | extracellular HBV DNA, % Untreated Control ([3]; 0.2 μM 3TC from 24 h p.i., moi 200, day 7 p.i. (6 days treatment)): 2.2 % Untreated Control | extracellular HBV DNA, % Untreated Control ([3]; 0.2 μM 3TC from 24 h p.i., moi 400, day 4 p.i. (3 days treatment)): 18.7 % Untreated Control | extracellular HBV DNA, % Untreated Control ([3]; 0.2 μM 3TC from 24 h p.i., moi 400, day 7 p.i. (6 days treatment)): 4.7 % Untreated Control | extracellular HBV DNA, % Untreated Control ([3]; 0.2 μM 3TC, P (from 16 h prior to infection), day 4 p.i. (3 days treatment), 50 pfu/cell): 10.1 % Untreated Control | extracellular HBV DNA, % Untreated Control ([3]; 0.2 μM 3TC, P (from 16 h prior to infection), day 7 p.i. (6 days treatment), 50 pfu/cell): 2.4 % Untreated Control | extracellular HBV DNA, % Untreated Control ([3]; 0.2 μM 3TC, P (from 16 h prior to infection), day 10 p.i. (9 days treatment), 50 pfu/cell): 0.8 % Untreated Control | extracellular HBV DNA, % Untreated Control ([3]; 0.2 μM 3TC, T (from 24 h p.i.), day 4 p.i. (3 days treatment), 50 pfu/cell): 13.4 % Untreated Control | extracellular HBV DNA, % Untreated Control ([3]; 0.2 μM 3TC, T (from 24 h p.i.), day 7 p.i. (6 days treatment), 50 pfu/cell): 5.6 % Untreated Control | extracellular HBV DNA, % Untreated Control ([3]; 0.2 μM 3TC, T (from 24 h p.i.), day 10 p.i. (9 days treatment), 50 pfu/cell): 1.9 % Untreated Control | reduction of extracellular HBV DNA ([3]; 0.2 μM 3TC, six days of treatment, 25 pfu of baculovirus): > 99% | average reduction of extracellular HBV DNA ([3]; 0.2 μM 3TC, six days of treatment, multiplicities 50 to 400 pfu/cell): greater than 96% | extracellular HBV DNA, % Untreated Control ([3]; 2.0 μM 3TC, P (from 16 h prior to infection), day 4 p.i. (3 days treatment), 50 pfu/cell): 1.3 % Untreated Control | extracellular HBV DNA, % Untreated Control ([3]; 2.0 μM 3TC, P (from 16 h prior to infection), day 7 p.i. (6 days treatment), 50 pfu/cell): 1.2 % Untreated Control | extracellular HBV DNA, % Untreated Control ([3]; 2.0 μM 3TC, P (from 16 h prior to infection), day 10 p.i. (9 days treatment), 50 pfu/cell): 0.8 % Untreated Control | extracellular HBV DNA, % Untreated Control ([3]; 2.0 μM 3TC, T (from 24 h p.i.), day 4 p.i. (3 days treatment), 50 pfu/cell): 2.4 % Untreated Control | extracellular HBV DNA, % Untreated Control ([3]; 2.0 μM 3TC, T (from 24 h p.i.), day 7 p.i. (6 days treatment), 50 pfu/cell): 2.4 % Untreated Control | extracellular HBV DNA, % Untreated Control ([3]; 2.0 μM 3TC, T (from 24 h p.i.), day 10 p.i. (9 days treatment), 50 pfu/cell): 0.8 % Untreated Control | reduction of extracellular HBV DNA ([3]; 2.0 μM 3TC, nine days of treatment, moi 50 pfu/cell): more than 99%
